Data: ChEMBL document CHEMBL3286379, “Design and synthesis of pyrimidine molecules endowed with thiazolidin-4-one as new anticancer agents” (Eur J Med Chem, 2014)

Columns and labels:
[1] = Growth inhibition of human Hs 578T cells after 48 hrs by sulforhodamine B assay; type: functional
[2] = Growth inhibition of human OVCAR8 cells after 48 hrs by sulforhodamine B assay; type: functional; conditions: OVCAR-8, 48 h
[3] = tested on: COLO 205; test: Growth inhibition of human COLO205 cells after 48 hrs by sulforhodamine B assay; type: functional; conditions: COLO 205, 48 h
[4] = tested on: T47D; test: Growth inhibition of human T47D cells after 48 hrs by sulforhodamine B assay; type: functional
[5] = tested on: NCI-H522; test: Growth inhibition of human NCI-H522 cells after 48 hrs by sulforhodamine B assay; type: functional; conditions: NCI-H522, 48 h
[6] = tested on: RPMI-8226; test: Growth inhibition of human RPMI8226 cells after 48 hrs by sulforhodamine B assay; type: functional; conditions: RPMI-8226, 48 h
[7] = tested on: SK-MEL-5; test: Growth inhibition of human SK-MEL-5 cells after 48 hrs by sulforhodamine B assay; type: functional; conditions: SK-MEL-5, 48 h
[8] = tested on: HCT-116; test: Growth inhibition of human HCT116 cells after 48 hrs by sulforhodamine B assay; type: functional; conditions: HCT-116, 48 h
[9] = Growth inhibition of human OVCAR4 cells after 48 hrs by sulforhodamine B assay; type: functional; conditions: OVCAR-4, 48 h
[10] = tested on: SK-OV-3; test: Growth inhibition of human SKOV3 cells after 48 hrs by sulforhodamine B assay; type: functional; conditions: SK-OV-3, 48 h
[11] = tested on: U-251; test: Growth inhibition of human U251 cells after 48 hrs by sulforhodamine B assay; type: functional; conditions: U-251, 48 h
[12] = tested on: SNB-19; test: Growth inhibition of human SNB19 cells after 48 hrs by sulforhodamine B assay; type: functional; conditions: SNB-19, 48 h
[13] = tested on: Rattus norvegicus; test: Hepatotoxicity in rat assessed as SGOT level at 0.12 mg/kg, po after 12 days (reference value: 140.23 +/- 1.39 U/mL); type: toxicity, organism-based; set-up: dose 0.12 mg/kg, route oral; conditions: in vivo, 288 h
[14] = read-out: LC50 (the source's name)
[15] = read-out: pLC50 (the source's name) (converted)

Compound: Nc1nc(-c2ccccc2Cl)cc(-c2ccc(Cl)cc2Cl)n1
- GI50 ([1]; read-out: GI50): 6.04 µM
- CC50 [1, 14]: > 100 µM
- TGI ([1]; read-out: TGI): 60.7 µM
- GI50 ([1]; read-out: pGI50 (converted)): 6.03 µM
- CC50 [1, 15]: > 100 µM
- TGI ([1]; read-out: pTGI (converted)): 60.3 µM
- GI50 ([2]; read-out: GI50): 6.87 µM
- CC50 [2, 14]: > 100 µM
- TGI ([2]; read-out: TGI): > 100 µM
- GI50 ([2]; read-out: pGI50 (converted)): 6.92 µM
- CC50 [2, 15]: > 100 µM
- TGI ([2]; read-out: pTGI): > 100 µM
- GI50 ([3]; read-out: GI50): 3.52 µM
- CC50 [3, 14]: 53 µM
- TGI ([3]; read-out: TGI): 15.5 µM
- GI50 ([3]; read-out: pGI50 (converted)): 3.55 µM
- CC50 [3, 15]: 52.5 µM
- TGI ([3]; read-out: pTGI (converted)): 15.5 µM
- GI50 ([4]; read-out: GI50): 6.58 µM
- CC50 [4, 14]: > 100 µM
- TGI ([4]; read-out: TGI): > 100 µM
- GI50 ([4]; read-out: pGI50 (converted)): 6.61 µM
- CC50 [4, 15]: > 100 µM
- TGI ([4]; read-out: pTGI): > 100 µM
- GI50 ([5]; read-out: GI50): 3.27 µM
- CC50 [5, 14]: > 100 µM
- TGI ([5]; read-out: TGI): 23.3 µM
- GI50 ([5]; read-out: pGI50 (converted)): 3.31 µM
- CC50 [5, 15]: > 100 µM
- TGI ([5]; read-out: pTGI (converted)): 23.4 µM
- GI50 ([6]; read-out: GI50): 3.1 µM
- CC50 [6, 14]: > 100 µM
- TGI ([6]; read-out: TGI): 17.6 µM
- GI50 ([6]; read-out: pGI50 (converted)): 3.09 µM
- CC50 [6, 15]: > 100 µM
- TGI ([6]; read-out: pTGI (converted)): 17.4 µM
- GI50 ([7]; read-out: GI50): 4.78 µM
- CC50 [7, 14]: 71.1 µM
- TGI ([7]; read-out: TGI): 20.8 µM
- GI50 ([7]; read-out: pGI50 (converted)): 4.79 µM
- CC50 [7, 15]: 70.8 µM
- TGI ([7]; read-out: pTGI (converted)): 20.9 µM
- GI50 ([8]; read-out: GI50): 4.27 µM
- CC50 [8, 14]: > 100 µM
- TGI ([8]; read-out: TGI): > 100 µM
- GI50 ([8]; read-out: pGI50 (converted)): 4.27 µM
- CC50 [8, 15]: > 100 µM
- TGI ([8]; read-out: pTGI): > 100 µM
- GI50 [9]: 12 µM
- CC50 [9, 14]: > 100 µM
- CC50 [9, 15]: > 100 µM
- TGI ([9]; read-out: pTGI (converted)): 89.1 µM
- GI50 ([10]; read-out: GI50): 10.1 µM
- CC50 [10, 14]: > 100 µM
- TGI ([10]; read-out: TGI): 62.3 µM
- GI50 ([10]; read-out: pGI50 (converted)): 10 µM
- CC50 [10, 15]: > 100 µM
- TGI ([10]; read-out: pTGI (converted)): 61.7 µM
- GI50 ([11]; read-out: GI50): 11.1 µM
- CC50 [11, 14]: > 100 µM
- TGI ([11]; read-out: TGI): > 100 µM
- GI50 ([11]; read-out: pGI50 (converted)): 11.2 µM
- CC50 [11, 15]: > 100 µM
- TGI ([11]; read-out: pTGI): > 100 µM
- GI50 ([12]; read-out: GI50): 16.1 µM
- CC50 [12, 14]: > 100 µM
- TGI ([12]; read-out: TGI): > 100 µM
- GI50 ([12]; read-out: pGI50 (converted)): 16.2 µM
- CC50 [12, 15]: > 100 µM
- TGI ([12]; read-out: pTGI): > 100 µM
- Activity [13]: 133.47 U/ml
